Data from US9574182B2, “Monoterpene glycosyltransferase originating from hop and method for using same” (SUNTORY HOLDINGS LIMITED, priority 2012, dated 2017).

B1: HlUGT251: Humulus lupulus monoterpene glycosyltransferase, amino acid sequence SEQ ID NO: 8, expressed as HisTag fusion in E. coli (protein, listed as Humulus lupulus)
chain: MGSISEMMKPHAVCVPFPAQGHVNPMMQLAKLLHSRGFHITYVNTEFNHRRLIRSRGPDSVKGLPDFQFETIPDGLPPSDRDATQEVPPLCDATRKNCLGPFKELLHKLRSCSEVPPVTCIITDGIMTFGIKAAREFGIPEVVFWTASACSFMGYLQYDELVRRGIVPFKDESFMLDGTLDTPIDWIPGIRDVRLRDLPSFLRVTSTDDIMFDFLGSQAKNCLTSSAIIFNTFRELELEVLDSISDMYPNIYTIGPLPMLNRHLPAESQVKSMSTSLWKEDSTCFQWLHKREPNSVVYVNYGSITTMTEDNFREFAWGLANSKHSFVWIVRPDVIMGSNSATVLPEEFFEEIKDRGLLANWCQQKEVLEHSSVGVFLTHCGWNSTVETVCAGVPVICWPFFADQQTNCHFACKTLGIGVEISPDVKREEVTGLVKEMMEGEKGEKMREKASYWKKKAAETTDIGGDSYHDFDKLIKSLGFDGRD
modifications: His tag

What was measured:
Assay type in all cases: biochemical, Humulus lupulus
HlUGT127 = assay: Monoterpene glycosylation by recombinant HlUGT127 (UDP-glucose, LC-MS); details: 2 mM UDP-glucose, 0.2 mM sugar acceptor substrate, pH 7.5, 30° C., 1 hour
Procedure: (§1) Next, these proteins were used to test their reactivity with monoterpenes by LC-MS analysis. Standard enzyme reaction conditions are as follows. A reaction solution (2 mM UDP-glucose, 0.2 mM sugar acceptor substrate, 100 mM potassium phosphate buffer (pH 7.5), 25 μl purified […] enzyme solution) was prepared in a volume of 50 μl with distilled water and reacted at 30° C. for 1 hour. The enzyme reaction solution (5 μl) was analyzed by LC-MS under the following conditions. LC Conditions Column: CAPCELL PAK C18-UG120 (2.0 mm I.D.×150 mm) Mobile phase: A: water (containing 0.05% formic acid), B: acetonitrile Gradient: linear concentration gradient of B from 15% to 90% over 15 minutes Flow rate: 0.2 ml per minute Column oven: 40° C. MS Conditions ESI (negative mode) SIM mode: (m/z 315, 338, 361, 363, 331, 354, 377, 429, etc.) The above LC-MS analysis was conducted for each of HlUGT119, HlUGT127, HlUGT279 and HlUGT251.

HlUGT279 = assay: Monoterpene glycosylation by recombinant HlUGT279 (UDP-glucose, LC-MS); details: 2 mM UDP-glucose, 0.2 mM sugar acceptor substrate, pH 7.5, 30° C., 1 hour
Procedure: as §1

HlUGT251 = assay: Monoterpene glycosylation by recombinant HlUGT251 (UDP-glucose, LC-MS); details: for monoglycosylation activity of HlUGT251 on the monoterpene: 2 mM UDP-glucose, 0.2 mM sugar acceptor substrate, pH 7.5, 30° C., 1 hour, LC-MS
Procedure: as §1

HlUGT119 = assay: Monoterpene glycosylation by recombinant HlUGT119 (UDP-glucose, LC-MS); details: 2 mM UDP-glucose, 0.2 mM sugar acceptor substrate, pH 7.5, 30° C., 1 hour
Procedure: as §1

| amount of product compared with the other three enzymes (HlUGT251; same reaction conditions, ascribed to extremely lower amount of expressed protein) | Molecule | monoglycosylation activity of HlUGT127 on the monoterpene (HlUGT127) | monoglycosylation activity of HlUGT279 on the monoterpene (HlUGT279) | monoglycosylation activity of HlUGT251 on the monoterpene (HlUGT251) | monoglycosylation activity of HlUGT119 on the monoterpene (HlUGT119) |
| --- | --- | --- | --- | --- | --- |
| – | C=CC(C)(O)CCC=C(C)C (stereo not drawn) [linalool, Linalool] | monoglycosylation activity | monoglycosylation activity | monoglycosylation activity | monoglycosylation activity |
| – | CC(C)=CCC/C(C)=C/CO [geraniol, Geraniol] | monoglycosylation activity | monoglycosylation activity | monoglycosylation activity | monoglycosylation activity |
| smaller amount of product | B1 | – | – | – | – |
